Assay results from ChEMBL document CHEMBL1137734, “2D- and 3D-QSAR of tocainide and mexiletine analogues acting as Na(v)1.4 channel blockers” (Eur J Med Chem, 2009).

Biological target: Sodium channel protein type 4 subunit alpha (Homo sapiens, UniProt P35499)
Experiment: Inhibition of Nav1.4 ion channel assessed as reduction in cumulative sodium current

Sequence of Sodium channel protein type 4 subunit alpha (P35499 whole entry): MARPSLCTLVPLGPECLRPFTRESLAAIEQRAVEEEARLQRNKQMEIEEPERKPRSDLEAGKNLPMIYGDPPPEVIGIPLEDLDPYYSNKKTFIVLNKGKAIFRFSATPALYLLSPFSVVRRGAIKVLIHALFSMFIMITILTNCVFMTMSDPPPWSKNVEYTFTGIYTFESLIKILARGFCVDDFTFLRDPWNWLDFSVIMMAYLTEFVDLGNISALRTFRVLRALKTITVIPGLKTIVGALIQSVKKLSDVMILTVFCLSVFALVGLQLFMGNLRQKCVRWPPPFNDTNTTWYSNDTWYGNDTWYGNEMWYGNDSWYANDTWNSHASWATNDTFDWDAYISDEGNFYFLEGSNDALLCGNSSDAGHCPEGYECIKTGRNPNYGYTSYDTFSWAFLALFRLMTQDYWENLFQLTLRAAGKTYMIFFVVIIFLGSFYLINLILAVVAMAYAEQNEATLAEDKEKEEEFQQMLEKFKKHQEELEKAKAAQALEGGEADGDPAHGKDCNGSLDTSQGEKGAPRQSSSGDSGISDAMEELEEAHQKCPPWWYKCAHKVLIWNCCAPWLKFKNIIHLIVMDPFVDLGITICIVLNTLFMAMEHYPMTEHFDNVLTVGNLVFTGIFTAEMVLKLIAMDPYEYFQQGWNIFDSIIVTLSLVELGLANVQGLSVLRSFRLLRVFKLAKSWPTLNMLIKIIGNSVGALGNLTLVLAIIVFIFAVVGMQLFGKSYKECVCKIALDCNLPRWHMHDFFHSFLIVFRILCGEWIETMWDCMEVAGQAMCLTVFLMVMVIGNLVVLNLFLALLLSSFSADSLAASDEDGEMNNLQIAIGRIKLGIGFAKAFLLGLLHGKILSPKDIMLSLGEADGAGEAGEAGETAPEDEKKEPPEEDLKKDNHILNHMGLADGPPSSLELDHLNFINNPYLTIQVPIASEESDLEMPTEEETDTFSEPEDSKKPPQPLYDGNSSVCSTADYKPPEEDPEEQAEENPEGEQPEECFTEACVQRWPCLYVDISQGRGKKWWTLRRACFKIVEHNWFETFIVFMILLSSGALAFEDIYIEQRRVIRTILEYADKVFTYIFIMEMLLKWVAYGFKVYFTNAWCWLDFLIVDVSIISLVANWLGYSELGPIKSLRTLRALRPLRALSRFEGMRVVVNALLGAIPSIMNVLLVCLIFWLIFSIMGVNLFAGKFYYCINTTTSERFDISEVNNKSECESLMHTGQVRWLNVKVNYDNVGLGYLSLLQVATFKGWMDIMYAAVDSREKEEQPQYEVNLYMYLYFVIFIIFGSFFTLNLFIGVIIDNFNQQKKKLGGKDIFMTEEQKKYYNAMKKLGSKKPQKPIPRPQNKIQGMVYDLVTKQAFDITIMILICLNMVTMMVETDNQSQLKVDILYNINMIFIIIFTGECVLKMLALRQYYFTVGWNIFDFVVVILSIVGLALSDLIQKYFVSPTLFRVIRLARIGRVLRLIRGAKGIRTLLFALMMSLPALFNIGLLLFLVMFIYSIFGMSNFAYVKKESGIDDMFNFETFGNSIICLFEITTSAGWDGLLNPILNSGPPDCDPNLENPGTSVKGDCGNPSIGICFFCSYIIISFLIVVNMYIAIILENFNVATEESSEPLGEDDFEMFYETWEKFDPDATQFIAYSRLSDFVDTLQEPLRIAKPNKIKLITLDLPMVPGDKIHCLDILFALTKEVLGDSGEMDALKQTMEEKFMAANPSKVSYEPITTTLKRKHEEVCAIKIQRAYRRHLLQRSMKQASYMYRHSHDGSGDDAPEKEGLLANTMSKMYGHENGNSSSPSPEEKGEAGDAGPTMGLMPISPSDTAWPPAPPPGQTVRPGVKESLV

Structure (SMILES) | EC50 [µM]
Cc1cc(Cl)cc(C)c1OC[C@@H](N)c1ccccc1 | 7.94
Cc1cc(Cl)cc(C)c1OC[C@H](N)c1ccccc1 | 19.5
Cc1cc(Cl)ccc1OC[C@H](N)c1ccccc1 | 15.1
N[C@H](COc1ccccc1)c1ccccc1 | 15.8
Cc1cccc(C)c1OC[C@H](C)CN | 23.4
Cc1cccc(C)c1NC(=O)[C@@H](C)NCc1ccccc1 | 11.2
Cc1cccc(C)c1NC(=O)[C@H](C)NCc1ccccc1 | 9.12
Cc1cccc(C)c1NC(=O)[C@@H]1CCCN1 | 40.7
Cc1cccc(C)c1NC(=O)[C@H]1CCCN1C | 67.6
Cc1cccc(C)c1NC(=O)[C@@H]1CCCN1C | 28.2
Cc1cccc(C)c1SC[C@H](N)c1ccccc1 | 7.08
Cc1cccc(C)c1N(C)C(=O)[C@H]1CCCN1C | 501
Cc1cccc(C)c1N(C)C(=O)[C@H]1CCCN1 | 219
Cc1cccc(C)c1N(C)C(=O)[C@@H]1CCCN1 | 67.6
Cc1cccc(C)c1N(C)C(=O)[C@@H]1CCCN1C | 200
Cc1cccc(C)c1NC(=O)[C@@H]1CCCN1Cc1ccccc1 | 10
Cc1cccc(C)c1OC[C@@H](C)CN | 17.4
Cc1cc(Cl)ccc1OC[C@@H](N)Cc1ccccc1 | 22.9
Cc1cccc(C)c1N1CN2CCC[C@@H]2C1=O | 501
Cc1cccc(C)c1NC(=O)[C@H]1CCCN1 | 12
Cc1cccc(C)c1NC(=O)[C@H]1CCCN1Cc1ccccc1 | 31.6
Cc1cccc(C)c1OC[C@@H](C)N [(R)-MEXILETINE] | 22.9
Cc1cccc(C)c1NC(=O)[C@@H](C)N [(R)-TOCAINIDE] | 275
Cc1cccc(C)c1OC[C@H](C)N [(S)-MEXILETINE] | 26.9
Cc1cccc(C)c1NC(=O)[C@H](C)N [S-TOCAINIDE] | 224

The next compounds have a lower EC50 than those just listed; values first:

EC50 [µM] | Structure (SMILES)
3.98 | N[C@@H](COc1ccccc1)c1ccccc1
3.02 | N[C@H](COc1ccc(Cl)cc1)c1ccccc1
3.02 | Cc1cccc(C)c1OC[C@H](N)c1ccccc1
3.02 | Cc1cccc(C)c1OC[C@@H](N)c1ccccc1
1.91 | Cc1cccc(C)c1SC[C@@H](C)CN
5.75 | Cc1cccc(C)c1OC[C@H](N)C(C)C
2.69 | Cc1cccc(C)c1SC[C@H](C)CN
4.68 | Cc1cccc(C)c1SC[C@@H](N)c1ccccc1
1.7 | Cc1cccc(C)c1NC(=O)[C@@H]1CCN(Cc2ccccc2)C1
3.72 | Cc1cc(Cl)cc(C)c1OC[C@H](C)CN
2.29 | Cc1cccc(C)c1NC(=O)[C@H]1CCN(Cc2ccccc2)C1
2.4 | Cc1cccc(C)c1OC[C@H](N)Cc1ccccc1
2.88 | Cc1cc(Cl)cc(C)c1OC[C@@H](C)CN
5.75 | Cc1cccc(C)c1OC[C@@H](N)C(C)C (racemic)
